Values of other authors in patent publication US20130029862A1, “Clinical application utilizing genetic data for effective medication management” (priority 2011, published 2013).

How the values were obtained:
[1] = carriers of C allele compared to T/T homozygotes, ApoE rs7412
[2] = Met/Met (A/A) compared to Val/Val (G/G), COMT rs4680

Row | Compound | weight gain [1] | response with antidepressant [2]
1 | Cc1cc2c(s1)Nc1ccccc1N=C2N1CCN(C)CC1 [olanzapine] | likely to gain weight on olanzapine | –
2 | Fc1ccc([C@@H]2CCNC[C@H]2COc2ccc3c(c2)OCO3)cc1 [paroxetine] | – | Better response with antidepressant
